Results: the CheMixHub viscosity set

Test: xn = mol fraction of the nth substance listed

CCOCCO + CS(C)=O
viscosity [mPa·s], 101.33 kPa
Settings | 298.15 K | 303.15 K | 308.15 K | 313.15 K | 318.15 K
x1 = 0.0436 | 2 | 1.8 | 1.66 | 1.52 | 1.38
x1 = 0.0879 | 2 | 1.8 | 1.66 | 1.53 | 1.38
x1 = 0.1327 | 2 | 1.81 | 1.67 | 1.53 | 1.38
x1 = 0.1781 | 2.01 | 1.81 | 1.67 | 1.53 | 1.38
x1 = 0.2242 | 2.01 | 1.82 | 1.68 | 1.54 | 1.38
x1 = 0.2709 | 2.02 | 1.82 | 1.68 | 1.54 | 1.38
x1 = 0.3183 | 2.02 | 1.82 | 1.68 | 1.54 | 1.38
x1 = 0.3663 | 2.03 | 1.83 | 1.69 | 1.54 | 1.38
x1 = 0.415 | 2.02 | 1.83 | 1.68 | 1.54 | 1.38
x1 = 0.4644 | 2.02 | 1.82 | 1.68 | 1.54 | 1.38
x1 = 0.5145 | 2.02 | 1.82 | 1.68 | 1.54 | 1.37
x1 = 0.5653 | 2.01 | 1.81 | 1.67 | 1.53 | 1.37
x1 = 0.6169 | 2.01 | 1.81 | 1.67 | 1.52 | 1.36
x1 = 0.6692 | 1.99 | 1.79 | 1.65 | 1.51 | 1.35
x1 = 0.7223 | 1.98 | 1.78 | 1.64 | 1.49 | 1.33
x1 = 0.7762 | 1.96 | 1.75 | 1.62 | 1.48 | 1.31
x1 = 0.8309 | 1.94 | 1.73 | 1.59 | 1.45 | 1.29
x1 = 0.8864 | 1.92 | 1.71 | 1.56 | 1.43 | 1.27
x1 = 0.9428 | 1.88 | 1.67 | 1.53 | 1.39 | 1.24

CNCCO + O
viscosity [mPa·s]
Settings | 293.15 K | 298.15 K | 303.15 K | 308.15 K | 313.15 K | 318.15 K | 323.15 K
100 kPa, x2 = 0.51 | 26.3 | – | – | – | 9.61 | – | 6.36
101 kPa, x1 = 0.0844 | – | – | 2.541 | 2.165 | 1.868 | 1.625 | –
101 kPa, x1 = 0.1894 | – | – | 6.505 | 5.276 | 4.347 | 3.612 | –
101 kPa, x1 = 0.3001 | – | – | 11.33 | 8.968 | 7.206 | 5.87 | –
101 kPa, x1 = 0.4014 | – | – | 14.46 | 11.33 | 9.042 | 7.311 | –
101 kPa, x1 = 0.448 | – | – | 15.21 | 11.93 | 9.52 | – | –
101 kPa, x1 = 0.5016 | – | – | 15.62 | 12.24 | 9.767 | – | –
101 kPa, x1 = 0.5474 | – | – | 15.45 | 12.14 | 9.666 | – | –
101 kPa, x1 = 0.6004 | – | – | 15.17 | 11.95 | 9.57 | – | –
101 kPa, x1 = 0.7021 | – | – | 13.66 | 10.84 | 8.761 | – | –
101 kPa, x1 = 0.7975 | – | – | 11.89 | 9.564 | 7.81 | – | –
101 kPa, x1 = 0.9048 | – | – | 10.09 | 8.218 | 6.771 | – | –
101.3 kPa, x1 = 0.0125 | 1.234 | 1.086 | 0.963 | 0.863 | 0.778 | 0.705 | 0.644
101.3 kPa, x1 = 0.138 | 6.87 | 5.53 | 4.42 | 3.65 | 3.07 | 2.61 | 2.25
101.3 kPa, x1 = 0.265 | 16.7 | 12.81 | – | 7.99 | 6.46 | 5.31 | 4.41
101.3 kPa, x2 = 0.3167 | 22.4 | 17.24 | 13.51 | 10.76 | 8.699 | 7.129 | 5.914
101.3 kPa, x2 = 0.5104 | 27.48 | 20.95 | 16.28 | 12.83 | 10.25 | 8.308 | 6.794
101.3 kPa, x2 = 0.641 | 22.98 | 17.41 | 13.47 | 10.6 | 8.484 | 6.887 | 5.67
101.3 kPa, x2 = 0.7356 | 17.61 | – | 10.58 | 8.433 | 6.828 | 5.626 | 4.688
101.3 kPa, x2 = 0.8064 | 10.8 | 8.438 | 6.716 | 5.451 | 4.498 | 3.765 | 3.181
101.3 kPa, x2 = 0.8623 | 6.917 | 5.549 | 4.52 | 3.745 | 3.143 | 2.663 | 2.282
101.3 kPa, x2 = 0.9067 | 4.02 | – | 2.789 | 2.363 | 2.02 | 1.75 | 1.536
101.3 kPa, x2 = 0.9434 | 2.462 | 2.089 | 1.794 | 1.557 | 1.364 | 1.206 | 1.076
101.3 kPa, x2 = 0.974 | 1.532 | 1.334 | 1.172 | 1.041 | 0.929 | 0.838 | 0.759
101.33 kPa, x1 = 0.01 | – | 1.089 | 0.97 | – | 0.785 | – | –
101.33 kPa, x1 = 0.0217 | – | 1.366 | 1.198 | – | 0.949 | – | –
101.33 kPa, x1 = 0.0333 | – | 1.692 | 1.469 | – | 1.133 | – | –
101.33 kPa, x1 = 0.0467 | – | 2.146 | 1.836 | – | 1.384 | – | –
101.33 kPa, x1 = 0.0622 | – | 2.759 | 2.315 | – | – | – | –
101.33 kPa, x1 = 0.0772 | – | 3.465 | 2.815 | – | 2.049 | – | –
101.33 kPa, x1 = 0.1167 | – | 5.735 | 4.525 | – | 3.075 | – | –
101.33 kPa, x1 = 0.1656 | – | 9.455 | 7.046 | – | 4.573 | – | –
101.33 kPa, x1 = 0.2308 | – | 14.59 | 10.71 | – | 6.551 | – | –
101.33 kPa, x1 = 0.3169 | – | 19.66 | 14.66 | – | 8.805 | – | –
101.33 kPa, x1 = 0.3893 | – | 21.8 | 16.85 | – | 10.24 | – | –
101.33 kPa, x1 = 0.449 | – | 22.25 | 17.79 | – | 10.9 | – | –
101.33 kPa, x1 = 0.5356 | – | 22.31 | 17.99 | – | 11.21 | – | –
101.33 kPa, x1 = 0.6845 | – | 21.05 | 16.24 | – | 10.16 | – | –
101.33 kPa, x1 = 0.8213 | – | 17.45 | 13.21 | – | 8.401 | – | –
101.33 kPa, x1 = 0.9202 | – | 13.96 | 11 | – | 7.227 | – | –
101.33 kPa, x1 = 0.956 | – | 12.96 | 10.26 | – | 6.823 | – | –
